Data as given in patent US10544090B2, “Anthraquinone analogs and methods of making and using thereof” (Georgia State University Research Foundation, Inc., priority 2012, dated 2020).
Read-outs that look alike come from different tables or passages of the source.

Columns and labels:
human NBMM cells = assay: WST cytotoxic assay on normal bone marrow mononuclear cells; assay type: cell-based; settings: concentration of 1-2 μM
Experimental: FIGS. 2a-2i are graphs showing the cytotoxicity of various Rhein analogues. Acute lymphoblastic leukemia (ALL) cell lines EU-1 (p53 normal) and EU-8 (p53 null) as well as normal human BM stroma cells were incubated with different concentrations of Rhein analogues as indicated for 24 h. Viability of cells was detected by Water soluble Tetrazolium (WST) dye assay. Data represent the mean percentage ±SD of the surviving cells (as compared to untreated controls) from three independent experiments.
The cytotoxic and inhibitory effects of the compounds described herein on normal human BM cells in vitro, as compared with doxorubicin was evaluated.

DNA damage = assay: Comet images, mechanism of cancer cell death; assay type: cell-based
Hek = assay: MTT cytotoxicity assay, Hek (Table 2); assay type: cell-based; settings: Homo sapiens, HEK293, 48 h incubation, read-out: IC50 (μM) against Hek
Experimental: (§1) The in vitro cytotoxicity studies of the synthesized compounds were performed in three different cell lines (HeLa, Hek, and KB). The activities of the herein described analogues were compared to that of rhein itself and doxorubicin. Due to the poor solubility of the compounds, all of the solutions used for biological testing were prepared using DMSO as solvent.

HeLa [1] = assay: MTT cytotoxicity assay, HeLa (Table 2); settings: Table 2
Experimental: as §1

KB = assay: MTT cytotoxicity assay, KB (Table 2); assay type: cell-based; settings: 48 h incubation, read-out: IC50 (μM) against KB
Experimental: as §1

MOLT4 = assay: MTT cytotoxicity evaluation of series 1 and 2 rhein analogues, MOLT4 (Tables 3, 4); settings: Homo sapiens, MOLT-4, read-out: IC50 (μM) against MOLT4
mice = assay: Toxicity in mice; assay type: in vivo; settings: single injection at a dose of 15/kg
Experimental: FIG. 6 is a table showing the estimated treatment doses and maximum tolerated dose (MTD) of MG1 in mice as compared with doxorubicin.
Toxicity was also evaluated in mice. […] Subsequently, a single injection of MG1 at a dose of 400 mg/kg was administered via injection.
[…]. Toxicity was also evaluated in mice. […] Subsequently, a single injection of MG1 at a dose of 400 mg/kg was administered via injection.

HeLa [2] = assay: MTT cytotoxicity evaluation of series 1 and 2 rhein analogues, HeLa (Tables 3, 4); assay type: cell-based; settings: Homo sapiens, HeLa; MTT; Tables 3 and 4; read-out: IC50 (μM) against HeLa
[3] = Homo sapiens, HeLa, 48 h, read-out: IC50 (μM) against HeLa, MTT, 48 h incubation
[4] = read-out: IC50 (μM) against HeLa, MTT, 48 h incubation

In the case of COc1cccc2c1C(=O)c1c(O)c3c(c(O)c1C2=O)C[C@@](O)(C(=O)CO)C[C@@H]3O[C@H]1C[C@H](N)[C@H](O)[C@H](C)O1 [Doxorubicin, reference compound], the “human NBMM cells survived after treatment” value (human NBMM cells) is reported as 40-50%, the “mechanism of cancer cell death (DNA damage)” value (DNA damage) is reported as “induces cancer cell death through DNA damage” and the IC50 (Hek) is reported as 0.15 µM. It also gave an IC50 (HeLa [1]; [3]) of 1.4 µM, an IC50 (HeLa [1]; [4]) of 1.5 µM and an IC50 (KB; Homo sapiens, KB) of 0.4 µM. For the same compound, the IC50 (MOLT4) was 0.04 µM, the death of mice (mice) was “death of all mice at day 7 due to cardiac toxicity” and the IC50 (HeLa [2]) was 0.98 µM.

With O=C(O)c1cc(O)c2c(c1)C(=O)c1cccc(O)c1C2=O [Rhein, reference compound] the IC50 (Hek) was over 100 µM, the IC50 (HeLa [1]; [3]) was 100 µM and the IC50 (HeLa [1]; [4]) was over 100 µM. For the same compound, the IC50 (KB) was over 100 µM, the IC50 (KB; Homo sapiens, KB, 48 h) was at least 100 µM and the IC50 (MOLT4) was 37 µM. For the same compound, the IC50 (HeLa [2]) was over 100 µM.
